Starred links: 1 amine or outer side, 2 acyl side, 3 side chain; linkers in the order of their positions; H or OH if unused. Non-standard residues stand in square brackets, D forms with d. Residues, ends and D or L forms follow the SMILES beside them. Chg = N[C@H](C(=O)O)C1CCCCC1; Suc = O=C(CCC(=O)[*:2])[*:1]
Experiments:
[1] = Inhibition of HCV NS3 protease by FRET assay; set-up: species or system Hepacivirus hominis
Hepatitis C virus [2] = assay: Antiviral activity against HCV in replicon assay; format: functional, Hepacivirus hominis; conditions: read-out: ED50 (the source's name)
Hepatitis C virus [3] = assay: Inhibition of HCV 1b NS3 protease; set-up: species or system Hepatitis C virus subtype 1b
NS3 = NS3 (Hepatitis C virus, UniProt A3EZJ3); assay: Inhibition of HCV 1a NS3 protease; set-up: species or system Hepatitis C virus subtype 1a
Chain of NS3 (A3EZJ3 whole entry): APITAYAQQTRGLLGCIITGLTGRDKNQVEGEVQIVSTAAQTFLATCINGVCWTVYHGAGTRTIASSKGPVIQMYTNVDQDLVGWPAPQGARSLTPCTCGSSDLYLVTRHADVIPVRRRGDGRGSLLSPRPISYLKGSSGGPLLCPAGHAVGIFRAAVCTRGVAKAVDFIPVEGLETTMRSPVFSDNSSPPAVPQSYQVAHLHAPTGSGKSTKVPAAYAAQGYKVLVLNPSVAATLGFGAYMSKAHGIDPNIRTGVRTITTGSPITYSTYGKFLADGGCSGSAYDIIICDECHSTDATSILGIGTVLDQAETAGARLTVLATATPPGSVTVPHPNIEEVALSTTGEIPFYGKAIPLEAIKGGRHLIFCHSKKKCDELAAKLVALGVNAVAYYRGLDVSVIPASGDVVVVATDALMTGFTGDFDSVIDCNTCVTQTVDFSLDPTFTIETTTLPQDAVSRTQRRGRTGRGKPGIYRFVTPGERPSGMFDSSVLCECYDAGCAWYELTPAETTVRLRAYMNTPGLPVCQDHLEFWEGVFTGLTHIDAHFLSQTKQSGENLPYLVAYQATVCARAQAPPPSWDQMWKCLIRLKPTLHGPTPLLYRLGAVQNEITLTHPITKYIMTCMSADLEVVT

SMILES	Ki [1]	EC50 (Hepatitis C virus [2])	Ki (Hepatitis C virus [3])	Ki (NS3)
CCC[C@H](NC(=O)[C@@H](NC(=O)[C@@H](NC(=O)OC(C)(C)C)C(C)(C)C)c1ccc(Oc2cc(-c3ccccc3)nc3cc(OC)ccc23)cc1)C(=O)NS(=O)(=O)c1ccccc1	0.23 µM	> 10 µM	–	–
COc1ccc2c(Oc3ccc([C@@H]4NC(=O)[C@@H](NC(=O)OC(C)(C)C)CCCCC/C=C\[C@@H]5C[C@@]5(C(=O)NS(=O)(=O)C5CC5)NC4=O)cc3)cc(-c3ccccc3)nc2c1	0.076 µM	4.6 µM	–	–
C=C[C@@H]1C[C@]1(NC(=O)[C@H](NC(=O)[C@@H](NC(=O)OC(C)(C)C)C(C)(C)C)c1ccc(OC)cc1)C(=O)NS(=O)(=O)C1CC1	34 µM	–	–	–
COc1ccc2c(Oc3ccc([C@@H]4NC(=O)[C@@H](NC(=O)OC(C)(C)C)CCCCC/C=C\[C@@H]5C[C@@]5(C(=O)O)NC4=O)cc3)cc(-c3ccccc3)nc2c1	0.79 µM	> 10 µM	–	–
C=C[C@@H]1C[C@]1(NC(=O)[C@@H](NC(=O)[C@@H](NC(=O)OC(C)(C)C)C(C)C)c1ccc(Oc2cc(-c3ccccc3)nc3cc(OC)ccc23)cc1)C(=O)NS(=O)(=O)C1CC1	0.2 µM	–	–	–
C=C[C@@H]1C[C@]1(NC(=O)[C@@H]1C[C@@H](Oc2cc(-c3ccccc3)nc3cc(OC)ccc23)CN1C(=O)[C@@H](NC(=O)OC(C)(C)C)C(C)C)C(=O)NS(=O)(=O)c1ccccc1	0.00076 µM	–	–	–
COc1ccc2c(O[C@@H]3C[C@H]4C(=O)N[C@]5(C(=O)O)C[C@H]5/C=C\CCCCC[C@H](NC(=O)OC5CCCC5)C(=O)N4C3)cc(-c3csc(NC(C)C)n3)nc2c1 [CILUPREVIR]	–	–	0.00066 µM	0.0003 µM
COc1ccc2c(Oc3ccc([C@H](NC(=O)[C@@H](NC(=O)OC(C)(C)C)C(C)(C)C)C(=O)N[C@@H](CC(F)F)C(=O)NS(=O)(=O)C4CC4)cc3)cc(-c3ccccc3)nc2c1	0.78 µM	> 10 µM	–	–
CCC[C@H](NC(=O)[C@@H](NC(=O)[C@@H](NC(=O)OC(C)(C)C)C(C)C)c1ccc(Oc2cc(-c3ccccc3)nc3cc(OC)ccc23)cc1)C(=O)NS(=O)(=O)c1ccccc1	0.28 µM	–	–	–
CCC[C@H](NC(=O)[C@@H]1C[C@@H](Oc2cc(-c3ccccc3)nc3cc(OC)ccc23)CN1C(=O)[C@@H](NC(=O)OC(C)(C)C)C(C)C)C(=O)NS(=O)(=O)c1ccccc1	0.3 µM	–	–	–
C=C[C@@H]1C[C@]1(NC(=O)C(NC(=O)[C@@H](NC(=O)OC(C)(C)C)C(C)C)c1ccc(Oc2cc(-c3ccccc3)nc3cc(OC)ccc23)cc1)C(=O)O (stereo partly specified)	2.4 µM	8.5 µM	–	–
C=C[C@@H]1C[C@]1(NC(=O)[C@H](NC(=O)[C@@H](NC(=O)OC(C)(C)C)C(C)(C)C)c1ccc(Oc2nc(Cl)cc3ccccc23)cc1)C(=O)NS(=O)(=O)C1CC1	1.1 µM	–	–	–
COc1ccc2c(Oc3ccc([C@H](NC(=O)[C@@H](NC(=O)OC(C)(C)C)C(C)(C)C)C(=O)NC4(C(=O)NS(=O)(=O)c5ccccc5)CC4)cc3)cc(-c3ccccc3)nc2c1	1.2 µM	> 10 µM	–	–
COc1ccc2c(Oc3ccc(C(NC(=O)[C@@H](NC(=O)OC(C)(C)C)C(C)(C)C)C(=O)N[C@@H](CC(F)F)C(=O)O)cc3)cc(-c3ccccc3)nc2c1 (stereo partly specified)	2.8 µM	–	–	–
C=C[C@@H]1C[C@]1(NC(=O)[C@@H](NC(=O)[C@@H](NC(=O)OC(C)(C)C)C(C)(C)C)c1ccc(Oc2cc(-c3ccccc3)nc3cc(OC)ccc23)cc1)C(=O)NS(=O)(=O)c1ccccc1	0.23 µM	> 10 µM	–	–
C=C[C@@H]1C[C@]1(NC(=O)[C@@H](NC(=O)[C@@H](NC(=O)OC(C)(C)C)C(C)(C)C)c1ccc(OC)cc1)C(=O)NS(=O)(=O)C1CC1	5.4 µM	–	–	–

SMILES	Ki [1]	EC50 (Hepatitis C virus [2])	Ki (Hepatitis C virus [3])	Ki (NS3)
CC(C)(C)OC(=O)N[C@H]1CCCCC/C=C\[C@@H]2C[C@@]2(C(=O)NS(=O)(=O)C2CC2)NC(=O)[C@H](c2ccc(Oc3nc(-c4ccncc4)cc4ccccc34)cc2)NC1=O	0.24 µM	–	–	–
C=C[C@@H]1C[C@]1(NC(=O)[C@@H](NC(=O)[C@@H](NC(=O)OC(C)(C)C)C(C)C)c1ccc(Oc2cc(-c3ccccc3)nc3cc(OC)ccc23)cc1)C(=O)NS(=O)(=O)c1ccccc1	0.27 µM	> 10 µM	–	–
C=C[C@@H]1C[C@]1(NC(=O)[C@@H](NC(=O)[C@@H](NC(=O)OC(C)(C)C)C(C)(C)C)c1ccc(Oc2nc(Cl)cc3ccccc23)cc1)C(=O)NS(=O)(=O)C1CC1	0.41 µM	> 10 µM	–	–
C=C[C@@H]1C[C@]1(NC(=O)[C@@H](NC(=O)[C@@H](NC(=O)OC(C)(C)C)C(C)(C)C)c1ccc(Oc2nc(-c3ccncc3)cc3ccccc23)cc1)C(=O)NS(=O)(=O)C1CC1	0.29 µM	> 10 µM	–	–
CC[C@H](C)[C@H](NC(=O)[C@@H](NC(=O)CCC(=O)O)C1CCCCC1)C(=O)N1CCC[C@H]1C(=O)N[C@@H](CS)C(=O)O (Suc-[Chg]IPC-OH)	23 µM	–	–	–
CC[C@@H](C)[C@H](NC(=O)[C@@H](NC(=O)CCC(=O)O)C1CCCCC1)C(=O)N[C@H](C(=O)N[C@@H](CS)C(=O)O)c1ccccc1	1 µM	–	–	–
C=C[C@@H]1C[C@]1(NC(=O)[C@@H](NC(=O)[C@@H](NC(=O)OC(C)(C)C)C(C)(C)C)c1ccc(Oc2cccc(Cl)n2)cc1)C(=O)NS(=O)(=O)C1CC1	2.6 µM	–	–	–
COc1ccc2c(Oc3ccc([C@@H]4NC(=O)[C@@H](NC(=O)OC(C)(C)C)CCCCC/C=C\[C@@H]5C[C@@]5(C(=O)NS(=O)(=O)c5ccccc5)NC4=O)cc3)cc(-c3ccccc3)nc2c1	0.095 µM	> 10 µM	–	–
C=C[C@@H]1C[C@]1(NC(=O)[C@@H](NC(=O)[C@@H](NC(=O)OC(C)(C)C)C(C)(C)C)c1ccc(Oc2cc(-c3ccccc3)nc3cc(OC)ccc23)cc1)C(=O)NS(=O)(=O)C1CC1	0.18 µM	> 10 µM	–	–
CCC[C@H](NC(=O)[C@@H](NC(=O)[C@@H](NC(=O)OC(C)(C)C)C(C)C)c1ccc(O)cc1)C(=O)NS(=O)(=O)c1ccccc1	130 µM	–	–	–
C=C[C@@H]1C[C@]1(NC(=O)[C@H](NC(=O)[C@@H](NC(=O)OC(C)(C)C)C(C)C)c1ccc(Oc2cc(-c3ccccc3)nc3cc(OC)ccc23)cc1)C(=O)NS(=O)(=O)c1ccccc1	0.4 µM	> 10 µM	–	–
CC(C)(C)OC(=O)N[C@H]1CCCCC/C=C\[C@@H]2C[C@@]2(C(=O)O)NC(=O)[C@H](c2ccc(Oc3nc(Cl)cc4ccccc34)cc2)NC1=O	1.1 µM	–	–	–
CC(C)(C)OC(=O)N[C@H]1CCCCC/C=C\[C@@H]2C[C@@]2(C(=O)O)NC(=O)[C@H](c2ccc(Oc3nc(-c4ccncc4)cc4ccccc34)cc2)NC1=O	1.3 µM	–	–	–
C=C[C@@H]1C[C@]1(NC(=O)[C@@H](NC(=O)[C@@H](NC(=O)OC(C)(C)C)C(C)(C)C)c1ccc(Oc2ccccn2)cc1)C(=O)NS(=O)(=O)C1CC1	7 µM	–	–	–
CC(C)(C)OC(=O)N[C@H]1CCCCC/C=C\[C@@H]2C[C@@]2(C(=O)NS(=O)(=O)C2CC2)NC(=O)[C@H](c2ccc(Oc3nc(Cl)cc4ccccc34)cc2)NC1=O	0.074 µM	> 10 µM	–	–

Reference: ChEMBL document CHEMBL1146301, “Phenylglycine as a novel P2 scaffold in hepatitis C virus NS3 protease inhibitors” (Bioorg Med Chem, 2007)
